For one series, the system named is cyst growth. To be noted: polycystic kidney disease model; cited from earlier work.
Series [1] deals with cells from reporter kidneys. As to the kind of experiment: NGAL-luciferase activity in primary cells from reporter kidneys. Type of series: cell-based, mouse. The note with it: plates seeded with cells from reporter kidneys. An excerpt:
NGAL di-fusion primary cells from whole organs. Whole kidney cells were obtained from the NGAL di-fusion reporter mice (8-12 weeks of age) using collagenase (Sigma) digestion, differential sieving and seeded at a density of 1×10^5 per well. Cells were washed with a buffered salt solution and grown overnight before exposure to TLR agonists, ROS inducing species or toxin. Plates were imaged in the Xenogen IVIS optical imaging system (Xenogen Corp., Almeda, Calif.) for NGAL-luciferase activity.
Bioluminescence and Fluorescence Imaging of mCherry and luciferase Expression in Living Mice and primary cell lines. For in vivo bioluminescence imaging, mice were anesthetized, and injected with 150 mg/kg of luciferin in PBS (pH 7) via IP injection that is allowed to distribute in awake animals for about 10 minutes. […] Regions of interest (ROIs) were drawn on the dorsal side of the animal and quantified by using Living Image Software version 3.1. Counts detected in the ROIs by the CCD camera digitizer can by converted to physical units of radiance in photons/s/cm2/steradian. […] NGAL reporter primary cells were first imaged for mCherry activity with block excitation and block emission and NGAL-luciferase activity was quantified by detection of light emitted after cell lysis and incubation with luciferin. […]

For series [2], the system named is NGAL message. As to the kind of experiment: Ngal in situ hybridization of kidney after lipidA challenge. Type of series: in vivo, mouse. To be noted: after LipidA treatment. The protocol:
In situ hybridization. NGAL RNA was detected using digoxigenin-labeled antisense riboprobes generated from cDNAs encoding Ngal (exon 1-7, 566 bp) by linearization with XhoI followed by T7 RNA polymerase. Kidneys were collected in ice-cold PBS and fixed overnight at 4° C. in 4% paraformaldehyde (PFA) in 0.1 M phosphate buffer saline (PBS), briefly quenched in 50 mM NH4Cl, cryoprotected overnight in 30% sucrose PBS and embedded and sectioned ([…]) in O.C.T. compound. The sections were post-fixed in 4% PFA for 10 min, treated with proteinase K (1 mg/ml for 3 min), acetylated and prehybridized for 2 hrs, and then hybridized at 68-72° C. overnight. The prehybridization and hybridization solution was 50% formamide, 5′SSC, 5′ Denhardts, […] baker's yeast RNA (Sigma), and […] herring sperm DNA (Sigma). Sections were washed at 72° C. in 5′SSC for 5-10 minutes, then at 72° C. in 0.2′SSC for 1 hour and then stained overnight (4° C.) with an anti-digoxigenin antibody coupled with alkaline phosphatase (Boehringer-Mannheim), at a 1:5000 dilution in 0.1 M Tris-HCl, pH 7.5, 0.15 M NaCl, 1% heat inactivated goat serum. Alkaline phosphatase activity was detected using BCIP, NBT (Boehringer-Mannheim) with 0.25 mg/ml levamisole in a humidified chamber for 1-3 days in the dark. Sections were dehydrated and mounted in Permount (Fisher Scientific). […]

The test system of series [3] is NGAL message. Kind of series: NGAL message (real-time PCR) in kidney after LipidA. The class given is in vivo, mouse. To be noted: 30 mg/kg LipidA. Here is the method: Real-Time PCR were prepared according to Bio-Rad SYBR GREEN, iCyclerMyiQ protocols. Target genes, including Ngal, β-actin, utilized respectively: Ngal 116 forward primer 5′-[…]-3′ and NGALa593 reverse 5′-[…]-3′; β-actin415 forward primer 5′-[…]-3′ and β-actin 696 reverse primer 5′-[…]-3′. The ΔΔCT method was used to calculate fold amplification of transcripts.
Real Time PCR analysis. Samples were processed according to Bio-Rad SYBR GREEN, iCyclerMyiQ protocols. Target genes utilized respectively: Ngal 116 forward primer 5′-[…]-3′ and NGALa593 reverse 5′-[…]-3′; β-actin415 forward primer 5′-[…]-3′ and β-actin 696 reverse primer 5′-[…]-3′. The ΔΔCT method was used to calculate fold amplification of transcripts.
(Quantitative PCR measures a nucleic acid by following its amplification.)

A further series deals with NGAL reporter ES cells. As to the kind of experiment: NGAL-luciferase responsiveness in NGAL reporter ES cells. The class given is cell-based, mouse. To be noted: NGAL reporter ES cells exposed to stimulant; control conditions no detectable expression. An excerpt: […]. […] […]. Verification of the germline-transmitted F1 mice. The targeted allele was PCR-amplified by using primers F2, and R3 which was from the 1 Kb DNA fragment replaced by a DTA-AMP^r cassette in the targeting construct.
NGAL targeting in mouse ES cells. The NGAL-targeting construct was electroporated into the KV1 ES cells, and the neomycin-resistant ES clones were PCR-screened for the targeted NGAL allele for homologous recombination. Additionally, ES cells containing the NGAL di-fusion gene were challenged with either cisplatin or LPS to induce NGAL reporter activity (FIG. 1B, Panel D). ES cells with a Luc2-mCherry-LNL knockin allele were microinjected into wild-type C57B6 blastocysts to generate chimera which were subsequently mated with albino C57B6 female mice for germline transmission. The F1 mice were PCR-genotyped by using primers F1, R1 and R2, and the germline transmitted mice contained both targeted and wild type alleles (FIG. 1B, Panel C).
Luciferase (pGL4.10[luc2], Promega E6651) and mCherry (pmCherry [mC], Clontech 632522) genes separated by a 42 by spacer were ligated by overlap PCR and validated in 293T cells using a CMV promoter to drive robust Luc2 and mC bioluminescence and fluorescence (FIG. 1A, Panel A). […]

Series [4] is classed as in vivo, mouse. An excerpt: Identification of Hidden Damage. Serum creatinine was little changed in our model of unilateral ischemia, because the untouched contralateral kidney limited the opportunity for azotemia.
A further series has as its system NGAL-Luc2/mC reporter. Kind of series: In vivo bioluminescence imaging of NGAL di-fusion reporter mouse after LipidA. The note with it: for NGAL activity assayed by luciferase (Luc2/mC response): kidney, liver, spleen, skin and lung, 24 hours after lipidA i.p. at 5, 15 and 30 mg/kg. The protocol:
Bioluminescence and Fluorescence Imaging of mCherry and luciferase Expression in Living Mice and primary cell lines. For in vivo bioluminescence imaging, mice were anesthetized, and injected with 150 mg/kg of luciferin in PBS (pH 7) via IP injection that is allowed to distribute in awake animals for about 10 minutes. […]. Mice are then placed in a light tight chamber equipped with a halogen light source, and whole body image was acquired for 30 seconds using the Xenogen IVIS optical imaging system with a block excitation filter and a block emission filter for NGAL-mCherry visualization and an open emission filter for NGAL-luciferase activity. Regions of interest (ROIs) were drawn on the dorsal side of the animal and quantified by using Living Image Software version 3.1. Counts detected in the ROIs by the CCD camera digitizer can by converted to physical units of radiance in photons/s/cm2/steradian. Visualization of NGAL di-fusion reporter activity in primary cells were also assayed in the bioimager. NGAL reporter primary cells were first imaged for mCherry activity with block excitation and block emission and NGAL-luciferase activity was quantified by detection of light emitted after cell lysis and incubation with luciferin.

A further series relates to Nf-κβ signaling. Kind of series: Nf-κβ inhibitors on LipidA induced Luc/mC expression in vivo. More on the design: species or system mouse. The text has this: A signaling pathway known to activate NGAL expression was taken advantage of in order to examine whether Luc2/mC expression was reversible after cessation of the stimulus. […] Subsequently, Nf-κβ mediates NGAL transcription. […] In addition, the testis is one of the few sites that tonically expresses NGAL and Luc2/mC, and even this site was suppressed by these inhibitors.

For series [5] the following is noted: cited from earlier work.
The next series has as its system NGAL expression. As to the kind of experiment: Cell stressors, NGAL expression. The class given is cell-based. The note with it: H202 1 mmol/L for 4 hours.
For the next series, the system named is PARP. To be noted: after onset of acute hindlimb ischemia (post hoc), during I/R; cited from earlier work.

Where two headings read alike, the source gives them in different places. Peptide text beside a SMILES is read from it. * marks the point of attachment. Cbz = O=C(OCc1ccccc1)*

Consider `CC(=O)O[C@H]1C(=O)[C@@]2(C)[C@H]([C@H](OC(=O)c3ccccc3)[C@]3(O)C[C@H](OC(=O)[C@H](O)[C@@H](NC(=O)c4ccccc4)c4ccccc4)C(C)=C1C3(C)C)[C@]1(OC(C)=O)CO[C@@H]1C[C@@H]2O` [taxol], for which the Cyst growth result in the series on cyst growth is listed as “limit cyst growth”.

For the compound LipidA, the “Response of primary reporter kidney cells (luciferase)” value in series [1] is reported as “responded in dose-dependent manner”. Also, the “Localisation of Ngal expression in kidney” value with NGAL message [2] is on record as “predominate expression in inner medullary tubules”; with NGAL message [2] (listed as lipidA) it was “expressed in tubules”. Further, the “NGAL message induced in the kidney” value with NGAL message [3] is on record as 30 fold. Besides, the NGAL-luciferase activity result with NGAL reporter ES cells is reported as “induced NGAL-luciferase activity”. The Azotemia entry in [4] (30 mg/kg dose of LipidA) was “induced Luc/mC and azotemia”. In addition, in [4] (low doses of LipidA (Luc/mC still induced)), the “Azotemia / serum creatinine” value is reported as “without azotemia or a change in serum creatinine”. Further, the “NGAL activity assayed by luciferase (Luc2/mC response)” value with NGAL-Luc2/mC reporter was “graded Luc-mC response”; with NGAL-Luc2/mC reporter (listed as lipidA), “upregulated and dose dependent”. For the same compound, the “Luc/mC induction, positive control” value with NGAL-Luc2/mC reporter (same mice at a later time after volume depletion) is recorded as “effectively induced Luc/mC”.

In the case of `N.N.[Cl][Pt][Cl]` [cisplatin], the “Response of primary reporter kidney cells (luciferase)” value in series [1] is recorded as “direct effect on renal epithelia”.

For `CC(C)C[C@@H](C=O)NC(=O)[C@H](CC(C)C)NC(=O)[C@H](CC(C)C)NC(=O)OCc1ccccc1` [MG-132] (Cbz-Leu-Leu-Leu-aldehyde), the “Tonic NGAL and Luc2/mC expression in testis” value in the series on Nf-κβ signaling is reported as “suppressed”. The “LipidA induced Luc/mC expression” value in the series on Nf-κβ signaling (NGAL reporter mouse) is on record as “reduced LipidA induced Luc/mC expression”.

For `[C-]#[O+].[C-]#[O+].[C-]#[O+].[C-]#[O+].[C-]#[O+].[C-]#[O+].[Cl][Ru][Cl].[Cl][Ru][Cl]` [tricarbonyldichlororuthenium(II) dimer], the “Levels of plasma creatinine” value in [5] (in vivo) is “significantly decreased”.

As for `NCC(=O)O.[CH+]=O.[CH+]=O.[CH+]=O.[Cl][Ru]` [CORM-3, tricarbonylchloro(glycinato)ruthenium(II)], the “Levels of plasma creatinine” value in series [5] (given 1 hour before onset of ischemia, 24 hours after reperfusion) is listed as “significantly decreased”.

Cobalt: the NGAL expression entry with NGAL expression was “trigger NGAL expression”.

Consider `CN(C)CC(=O)Nc1ccc2[nH]c(=O)c3ccccc3c2c1` [PJ34], for which the “Local production of inflammatory mediators” value with PARP was “modulates the local production of inflammatory mediators”.
